Measured values: ChEMBL document CHEMBL4339204, “Synthesis of α-methylstilbenes using an aqueous Wittig methodology and application toward the development of potent human aromatase inhibitors” (Bioorg Med Chem Lett, 2019)

target: T1, Aromatase (Homo sapiens, UniProt P11511)
T1 sequence (P11511 whole entry): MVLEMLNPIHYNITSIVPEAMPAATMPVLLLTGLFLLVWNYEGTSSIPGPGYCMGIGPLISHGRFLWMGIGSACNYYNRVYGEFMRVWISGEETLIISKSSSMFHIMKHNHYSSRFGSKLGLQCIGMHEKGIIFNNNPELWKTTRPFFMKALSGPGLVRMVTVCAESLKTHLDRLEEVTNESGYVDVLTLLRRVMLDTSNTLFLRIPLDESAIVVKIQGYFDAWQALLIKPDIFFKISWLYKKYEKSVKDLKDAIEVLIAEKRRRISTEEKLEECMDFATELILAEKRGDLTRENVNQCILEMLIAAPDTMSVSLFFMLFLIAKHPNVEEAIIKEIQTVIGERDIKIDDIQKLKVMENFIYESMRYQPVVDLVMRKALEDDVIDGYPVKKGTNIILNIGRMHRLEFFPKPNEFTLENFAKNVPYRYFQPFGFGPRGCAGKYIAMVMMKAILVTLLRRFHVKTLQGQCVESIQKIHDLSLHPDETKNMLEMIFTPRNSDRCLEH
Description: Inhibition of recombinant human CYP19A1 using DBF as substrate measured after 1 hr by fluorescence assay

Q: `Brc1ccc(/C=C(/Cn2ccnn2)c2ccc(Br)cc2)cc1` was tested. Which Ki did it give?
A: Its Ki is 0.45 µM.

Q: `Clc1ccc(/C=C(/Cn2ccnn2)c2ccc(Cl)cc2)cc1` was tested. Which Ki did it give?
A: The Ki was 0.097 µM.

Q: `Brc1ccc(/C(=C/c2ccccc2)Cn2ccnn2)cc1` was tested. Which Ki did it give?
A: Its Ki is 0.074 µM.

Q: How did the Ki turn out when `C(=C(\Cn1cncn1)c1ccccc1)/c1ccccc1` was run?
A: The Ki was 0.079 µM.

Q: With `Brc1ccc(/C=C(\Cn2ccnn2)c2ccc(Br)cc2)cc1` as the molecule, how does the Ki read?
A: The Ki was 0.024 µM.

Q: With `Brc1ccc(/C(=C\c2ccccc2)Cn2ccnn2)cc1` as the molecule, how does the Ki read?
A: The Ki was 0.125 µM.

Q: With `Clc1ccc(/C=C(\Cn2ccnn2)c2ccc(Cl)cc2)cc1` as the molecule, how does the Ki read?
A: Its Ki is 0.008 µM.

Q: `c1ccc(CC(Cn2ccnn2)c2ccccc2)cc1` (stereo unspecified) was tested. Which Ki did it give?
A: Its Ki is 0.29 µM.

Q: Which Ki does the source give for `C(=C(/Cn1cncn1)c1ccccc1)/c1ccccc1` here?
A: Its Ki is 0.032 µM.

Q: How did the Ki turn out when `Clc1ccc(/C(=C/c2ccccc2)Cn2ccnn2)cc1` was run?
A: The Ki was 0.057 µM.

Q: `Clc1ccc(/C(=C\c2ccccc2)Cn2ccnn2)cc1` was tested. Which Ki did it give?
A: Its Ki is 0.081 µM.
